Tests used:
Format in all cases: cell-based, human
[1] = test system: peripheral blood mononuclear cells derived from a cancer patient; assay: CTL induction by peptide from autologous PBMC of cancer patient, IFN-γ production on recognition of target cells (Example 5); conditions: PBMC stimulated with 10 μM peptide
[2] = test system: peripheral blood mononuclear cells derived from a cancer patient; assay: as above; conditions: for Recognition of tumor cells by PBMC stimulated in vitro with peptide (IFN-γ production): SW620, CA9-22 and Panc-1 HLA-A2+ tumor cells, result in words; for IFN-γ production from peripheral blood mononuclear cells in recognition of target cells: PBMC stimulated with 10 μM peptide
Text: Among the peptides that were able to enhance IFN-γ production from the OK-CTLp or OK-CTL clone in Example 4, those from P1 to P19 were examined for their ability to induce CTL from peripheral blood mononuclear cells derived from a cancer patient. The method for inducing CTL by a peptide was according to the well-known method (J. Exp. Med., 187:277-288, 1998; Cancer Res., 59:4056-4063, 1999.) Specifically, autologous peripheral blood mononuclear cells (PBMC) derived from a cancer patient, from whom OK-CTLp was obtained, were incubated together with the peptide (10 μM.) The cells were re-stimulated at day 10 and 14 after the start of culturing, using autologous PBMCs as an antigen presenting cell (APC) which were pulsed with 10 μM of the same peptide for 2 h and exposed to irradiation (30 gray.) At day 21 after the start of culturing, the cells were collected to test for surface phenotype. In addition, the cells were examined for the recognition of various target cells, using IFN-γ production measured by ELISA when they were cultured together with the target cells as an indicator. As a target cells, SW620 cell, CA9-22 cell, and Panc-1 cell, which are the HLA-A2^+ tumor cells, were used.

OK-CTLp or OK-CTL clone = assay: Recognition of peptide-pulsed T2 cells by OK-CTLp or OK-CTL clone (IFN-γ ELISA)
[3] = concentration of peptide 0.1 μM

Row | Sequence | IFN-γ production from peripheral blood mononuclear cells in recognition of target cells ([1]; target COLO320 (HLA-A24/24)) [pg/mL] | IFN-γ production from peripheral blood mononuclear cells in recognition of target cells ([1]; target QG56 (HLA-A26/26)) [pg/mL] | IFN-γ production from peripheral blood mononuclear cells in recognition of target cells ([1]; target RERF-LC-MS (HLA-A11/11)) [pg/mL] | Recognition of tumor cells by PBMC stimulated in vitro with peptide (IFN-γ production) [2] | IFN-γ production from peripheral blood mononuclear cells in recognition of target cells ([2]; target CA9-22 (HLA-A0207/24)) [pg/mL] | IFN-γ production from peripheral blood mononuclear cells in recognition of target cells ([2]; target Panc-1 (HLA-A0201/11)) [pg/mL] | IFN-γ production from peripheral blood mononuclear cells in recognition of target cells ([2]; target SW620 (HLA-A0201/24)) [pg/mL] | IFN-γ production (OK-CTLp or OK-CTL clone; [3]) [pg/mL] | IFN-γ production (OK-CTLp or OK-CTL clone; concentration of peptide 1 μM) [pg/mL] | IFN-γ production (OK-CTLp or OK-CTL clone; concentration of peptide 10 μM) [pg/mL] | IFN-γ production (OK-CTLp or OK-CTL clone; concentration of peptide 50 μM) [pg/mL]
1 | CLYGNVEKV (Designed peptide having an ability to activate HLA-A2 restricted Cytotoxic T lymphocytes) [Peptide P7, Gene 2 (HNRPL) 404-412] | 0 | 0 | 0 | induced CTL recognizing any one of the HLA-A2^+ tumor cells | 0 | 54 | 344 | – | – | – | –
2 | DLLSHAFFA [Peptide P18] | 0 | 29 | 0 | produced IFN-γ in a significant amount | 70 | >1000 | >1000 | – | – | – | –
3 | ELLNRYLYL [Peptide P27] | – | – | – | – | – | – | – | 352 | 889 | 250 | 0
4 | FMFGQKLNV (Designed peptide having an ability to activate HLA-A2 restricted Cytotoxic T lymphocytes) [Peptide P8, Gene 2 (HNRPL) 443-451] | 0 | 0 | 26 | produced IFN-γ in a significant amount | 165 | 186 | 142 | – | – | – | –
5 | ILGELREKV (Designed peptide having an ability to activate HLA-A2 restricted Cytotoxic T lymphocytes) [Peptide P11, Gene 3 (WHSC2) 141-149] | 0 | 0 | 0 | produced IFN-γ in a significant amount | 62 | >1000 | 893 | – | – | – | –
6 | ILPRKHHRI (Designed peptide having an ability to activate HLA-A2 restricted Cytotoxic T lymphocytes) [Peptide P5, Gene 1 (UBE2V) 208-216] | 38 | 0 | 0 | produced IFN-γ in a significant amount | 96 | 638 | 500 | – | – | – | –
7 | LIMLQNALT [Peptide P28] | – | – | – | – | – | – | – | 898 | – | 0 | 144
8 | LIMLQNALTT (LLMLQNALTT; Designed peptide having an ability to activate HLA-A2 restricted Cytotoxic T lymphocytes) [Peptide P31, Gene 7 1358-1367] | – | – | – | – | – | – | – | 443 | – | – | 314
9 | LLLLARWEDT (Designed peptide having an ability to activate HLA-A2 restricted Cytotoxic T lymphocytes) [Peptide P2, Gene 1 (UBE2V) 64-73] | 5 | 0 | 0 | induced CTL recognizing any one of the HLA-A2^+ tumor cells | 0 | 0 | 53 | – | – | – | –
10 | LLQDWHVIL (Designed peptide having an ability to activate HLA-A2 restricted Cytotoxic T lymphocytes) [Peptide P4, Gene 1 (UBE2V) 201-209] | 0 | 0 | 0 | induced CTL recognizing any one of the HLA-A2^+ tumor cells | 0 | 0 | 60 | – | – | – | –
11 | MLPLECQYL (Designed peptide having an ability to activate HLA-A2 restricted Cytotoxic T lymphocytes) [Peptide P12, Gene 3 (WHSC2) 157-165] | 40 | 0 | 0 | induced CTL recognizing any one of the HLA-A2^+ tumor cells | 0 | 197 | 46 | – | – | – | –
12 | NVLHFFNAPL (Designed peptide having an ability to activate HLA-A2 restricted Cytotoxic T lymphocytes) [Peptide P9, Gene 2 (HNRPL) 501-510] | 0 | 0 | 27 | produced IFN-γ in a significant amount | 98 | 339 | 194 | – | – | – | –
13 | QILKGLLFL (Designed peptide having an ability to activate HLA-A2 restricted Cytotoxic T lymphocytes) [Peptide P16, Gene 5 (ppMAPkkk) 290-298] | 0 | 0 | 0 | induced CTL recognizing any one of the HLA-A2^+ tumor cells | 147 | 113 | 0 | – | – | – | –
14 | RIQEWCSVI (RLQEWCSVI; Designed peptide having an ability to activate HLA-A2 restricted Cytotoxic T lymphocytes) [Peptide P1, Gene 1 (UBE2V) 43-51] | 50 | 0 | 26 | produced IFN-γ in a significant amount | 81 | 492 | 235 | – | – | – | –
15 | TLLRKERGV (Designed peptide having an ability to activate HLA-A2 restricted Cytotoxic T lymphocytes) [Peptide P13, Gene 3 (WHSC2) 267-275] | 0 | 0 | 15 | produced IFN-γ in a significant amount | 95 | 115 | 151 | – | – | – | –
